Measurements as given in PubChem BioAssay AID1159565 (GlaxoSmithKline (GSK), 2015).
The source made the active and inactive calls. The rule behind the calls is not given here.

Tested on: T. cruzi-infected H9C2 cardiomyocytes, high-content imaging
Experiment: intracellular T. cruzi amastigote inhibition, imaging, H9C2 host cardiomyocytes, host toxicity (AID 1159565);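 note: infected cells incubated 72 h after plating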
[1] = measured here: H9C2 host cell toxicity
[2] = measured here: amastigotes per cell

Row | SMILES | IC50 | IC50 [1] [nM] | IC50 [2] [nM]
1 | Cc1nc(-c2ccncc2)ncc1C(C)NC(=O)c1ccc(Cl)s1 (configuration not stated) | 32000 nM | > 50000 | 20000
2 | Cc1cc(C#N)c([N+](=O)[O-])cc1Br | 320 nM | 50000 | 50
3 | COc1cnc2ccc(=O)n(CCN3CCC(NC(=O)c4ccc(Cl)cc4)CC3)c2c1 | 250 nM | 630 | 79
4 | O=C(NCc1nnc2n1CCCCC2)c1csc(-c2ccccc2)n1 | 2000 nM | > 50000 | 2000
5 | C[C@@H](Oc1cc(-n2cnc3ccc(CC(O)CO)cc32)sc1C(N)=O)c1ccccc1Cl (some centres not stated) | 50000 nM | 130 | 13000
6 | CC(C)CC(=O)Nc1cc(C2CC2)nn1-c1nc2c(c(=O)[nH]1)CCCC2 | 500 nM | 2500 | 130
7 | O=c1cc(NCCCNCc2c[nH]c3ccc(Br)cc23)[nH]c2ccccc12 | > 50000 nM (inactive) | > 50000 | 32000
8 | Nc1nc(-c2ccccn2)nc(-n2nc(-c3ccccc3)cc2N)n1 | 2500 nM | 2000 | 320
9 | Cc1nc(N2CCC(C(=O)N3CCC(O)(c4cccnc4)CC3)CC2)nc2ccc(C(C)C)cc12 | 320 nM | 40000 | 400
10 | N#Cc1cccc(CNc2ccc(-c3cnn(CC4CC4)c(=O)c3C#N)cc2)c1 | 7900 nM | > 50000 | 5000
11 | O=C(NCCc1nc(-c2ccc(F)c(F)c2)n[nH]1)C1CCCCC1 | 2500 nM | > 50000 | 1600
12 | CN(C)S(=O)(=O)c1cccc(CSc2nnc(-c3ccc4c(c3)OCO4)o2)c1 | 100 nM | > 50000 | 50
13 | COc1ccc(-c2cnc(NC(=O)c3ccc(F)cc3)n2C)cc1 | 5000 nM | > 50000 | 2000
14 | CS(=O)(=O)c1ccc(CC(=O)Nc2nc(-c3ccc(Cl)s3)cs2)cc1 | 320 nM | 16000 | 400
15 | C[C@@H](Oc1cc(-n2cnc3ccc(O[C@H]4CCNC4)cc32)sc1C(N)=O)c1ccccc1Cl | 13000 nM | 630 | 6300
16 | NC(=O)c1cc(F)ccc1Nc1nc(NC2CCC(O)CC2)ncc1Cl (configuration not stated) | 5000 nM | 1600 | 1600
17 | Cc1[nH]n2c(=O)c3c(nc2c1-c1ccc(F)cc1)CCCC3 | 2000 nM | > 50000 | 790
18 | Cc1c(C#N)c([N+](=O)[O-])nn1Cc1cccc(Cl)c1Cl | 100 nM | > 50000 | 40
19 | CCN(CC)S(=O)(=O)c1ccc(C(=O)Nc2cc(C)nn2-c2nc(C)c(C)c(=O)[nH]2)cc1 | 1600 nM | > 50000 | 320
20 | Cc1[nH]nc(-c2nc3ccccc3[nH]2)c1C(=O)NC1CCCNC1 (configuration not stated) | 63 nM | 3200 | 40
21 | NS(=O)(=O)c1ccc(Nc2ncc3cccc(OC4CCNCC4)c3n2)cc1 | 50 nM | 630 | 20
22 | O=C(NCC1CCCCC1)c1cnns1 | 3200 nM | > 50000 | 2000
23 | O=C(N[C@H](CO)c1ccccc1)c1ccc(-c2c[nH]c3nccc(C(F)(F)F)c23)s1 | 10000 nM | 13000 | 10000

Row | SMILES | IC50 | IC50 [1] [nM] | IC50 [2] [nM]
24 | COc1ccc(S(=O)(=O)NC(C)C)cc1Nc1ncc(-c2cccc(F)c2)cn1 | 400 nM | > 50000 | 320
25 | Cc1nn(C)c(Cl)c1CN(Cc1cccnc1)Cc1ccsc1 | 320 nM | > 50000 | 320
26 | Cc1ccc2c(c1)SC(C(=O)Nc1n[nH]c(-c3ccccn3)n1)C2 (configuration not stated) | 7900 nM | > 50000 | 6300
27 | CCC(=O)Nc1ccc(C(=O)Nc2ccccc2-c2ccccc2)cc1 | 500 nM | > 50000 | 250
28 | O=C(Nc1nc(-c2ccccn2)cs1)c1ccc(S(=O)(=O)N2CCCCC2)cc1 | 630 nM | 2500 | 400
29 | NC(=O)c1ccc(-c2cccc(OCCN3CCN(C4CCCCC4)CC3)c2)cc1 | 1600 nM | > 50000 | 790
30 | Cc1ccc(C)c(-n2nnnc2Sc2nc([N+](=O)[O-])nn2C)c1 | 790 nM | > 50000 | 250
31 | CS(=O)(=O)c1cccc(-c2cnc(N)c3c(-c4ccc(CO)cc4)csc23)c1 | 630 nM | > 50000 | 320
32 | O=C(NCCc1cccnc1)c1ccc(-c2ccccc2F)o1 | 200 nM | > 50000 | 200
33 | O=c1ccc2ccc(F)c3c2n1C[C@H]3CN1CCN(CC(O)c2cc3c(cn2)OCS3)CC1 (some centres not stated) | 630 nM | > 50000 | 320
34 | CCN(C)Cc1ccc(N2CCC(NS(=O)(=O)c3ccc4c(c3)CCO4)CC2)nc1 | 1300 nM | > 50000 | 1000
35 | Cn1c(CN2CCN(c3ncc(C(F)(F)F)cc3Cl)CC2)nc2ccncc21 | 1000 nM | > 50000 | 1000
36 | CCOc1ccc(Nc2ccc(S(=O)(=O)N3CCN(C)CC3)cc2[N+](=O)[O-])cc1OCC | > 50000 nM (inactive) | > 50000 | 3200
37 | O=C(NCc1ccc(-n2cccc2)cc1)c1nc(Cn2ccc([N+](=O)[O-])n2)no1 | 2500 nM | > 50000 | 1300
38 | CCc1cccc(CC)c1-n1c(SCC(=O)N2CC(=O)Nc3ccccc32)nnc1-c1cccnc1 | 32000 nM | > 50000 | 25000
39 | CCN(CC)S(=O)(=O)c1ccc(Cn2nc(C(=O)Nc3ccncn3)c3ccccc32)cc1 | 400 nM | 25000 | 400
40 | O=S1N=C(NCCCN(Cc2ccc(F)cc2)c2ccccn2)C(NCc2ccncc2)=N1 (configuration not stated) | 50000 nM | > 50000 | 40000
41 | O=C(N1CCc2ccccc2CC1)C1(C(=O)N2CCC(n3c(=O)[nH]c4ncccc43)CC2)CC1 | 790 nM | > 50000 | 630
42 | Clc1ccc(Sc2cnccc2N2CCOCC2)cc1 | 130 nM | > 50000 | 100
43 | COc1ccc(S(=O)(=O)Nc2ccccc2OC)cc1NC(=O)CCCc1c[nH]c2ccccc12 | 1300 nM | > 50000 | 1000
44 | COc1cnc2ccc(=O)n(CCN3CCC(NC(=O)Cc4ccc(Cl)c(Cl)c4)CC3)c2c1 | 400 nM | 6300 | 160
45 | COc1ccccc1C1CC(c2ccc(NS(C)(=O)=O)cc2)=NN1C(=O)c1cccs1 (configuration not stated) | > 50000 nM (inactive) | > 50000 | > 50000
46 | CCOc1ccc2nc(NC(=O)c3ccc([N+](=O)[O-])s3)sc2c1 | 1300 nM | 10000 | 1000

Row | SMILES | IC50 | IC50 [1] [nM] | IC50 [2] [nM]
47 | CN(C)S(=O)(=O)c1ccc(-c2cnc(N)c(-c3nc4ccc(F)cc4[nH]3)c2)cc1 | > 50000 nM (inactive) | 1300 | > 50000
48 | O=C(NC(c1ccc(Cl)cc1)c1cnccn1)C1CCN(C(=O)Nc2cccc(C(F)(F)F)c2)CC1 (configuration not stated) | 630 nM | > 50000 | 500
49 | COc1ccc(Cl)cc1CC(=O)Nc1n[nH]c(-c2ccccn2)n1 | > 50000 nM (inactive) | > 50000 | 10000
50 | O=c1cc(CSc2ccc(Cl)cc2)nc(-c2ccccn2)[nH]1 | 1600 nM | 3200 | 790
51 | COCc1cc(Nc2ccc(Cl)cc2)nc(-c2ccccn2)n1 | 5000 nM | 1300 | 2500
52 | COc1ccc(C(=O)Nc2ccc(NC(=O)CO)cc2)cc1 | > 50000 nM (inactive) | > 50000 | > 50000
53 | CC(Cn1ccnc1)NC(=O)C1CC1c1cccc(Cl)c1Cl (configuration not stated) | 250 nM | > 50000 | 200
54 | CCN(Cc1nc2ccc(C(=O)N3CCN(c4ncccn4)CC3)cc2[nH]1)C1CCCc2cccnc21 (configuration not stated) | 13000 nM | 16000 | 2000
55 | Cc1ccc(Nc2nc(N)nc(CNC(c3nc4ccccc4[nH]3)C(C)C)n2)cc1 (configuration not stated) | 7900 nM | > 50000 | 5000
56 | COc1ccc(Nc2nccc(N(C)c3n[nH]c4c(F)cccc34)n2)cc1S(C)(=O)=O | 4000 nM | 7900 | 2000
57 | O=C(Cn1cnc2cc([N+](=O)[O-])ccc2c1=O)NCCc1ccc(Cl)cc1Cl | 400 nM | > 50000 | 200
58 | NC(=O)c1cc(F)ccc1Nc1nc(NC2CCC(O)CC2)ncc1Br (configuration not stated) | 2000 nM | 500 | 790
59 | CC(C)(C)C(=O)Nc1cc(C2CC2)nn1-c1nc2c(c(=O)[nH]1)CCCC2 | 500 nM | 2000 | 130
60 | COc1ccc(C(=O)N2CCC(Nc3cccnc3)C2)c(OC)n1 (configuration not stated) | 790 nM | > 50000 | 790
61 | CC(C)C[C@H](NC(=O)c1ccc(-c2ccccc2)o1)C(=O)NC1(C#N)CC1 | > 50000 nM (inactive) | > 50000 | 25000
62 | COc1cccc(NS(=O)(=O)c2ccc3[nH]cc(C(=O)NCCC(C)C)c(=O)c3c2)c1 | 32000 nM | 13000 | 16000
63 | O=C1CCCCCC1(Cc1cnc[nH]1)c1ccc(Cl)cc1Cl (configuration not stated) | 250 nM | > 50000 | 320
64 | COc1cccc(C(=O)[C@H]2C[C@@H]2CN(Cc2cccnc2)Cc2cccnc2)c1 | 63 nM | > 50000 | 50
65 | CCC(=O)Nc1ccccc1C(=O)Nc1ccccn1 | > 50000 nM (inactive) | > 50000 | > 50000
66 | COc1cc(Nc2nccc(Nc3onc(C)c3C)n2)cc(S(=O)(=O)C2CCOCC2)c1 | 25000 nM | 10000 | 13000
67 | CNc1cncc(C2CCCN2C(=O)Cc2coc3cc(C)ccc23)n1 (configuration not stated) | 200 nM | > 50000 | 200
68 | COc1ccc(-c2csc(NC(=O)c3ccc([N+](=O)[O-])s3)n2)cc1 | 250 nM | 32000 | 200
69 | Cc1cccc(Nc2nc(-c3ccccn3)cs2)n1 | 1000 nM | 630 | 790
